Data set [1] concerns the target T1, ATP-binding cassette sub-family C member 2 (Rattus norvegicus, UniProt Q63120). Kind of data set: TP_TRANSPORTER: biliary excretion in SD rat. Type of data set: functional, organism-based, Sprague-Dawley, Bile. As to conditions: in vivo.
Data set [2] has as its target T1, ATP-binding cassette sub-family C member 2. As to the kind of experiment: TP_TRANSPORTER: biliary excretion in EHBR rat. Type of data set: functional, organism-based, Bile. As to conditions: in vivo.

T1 sequence (Q63120 whole entry): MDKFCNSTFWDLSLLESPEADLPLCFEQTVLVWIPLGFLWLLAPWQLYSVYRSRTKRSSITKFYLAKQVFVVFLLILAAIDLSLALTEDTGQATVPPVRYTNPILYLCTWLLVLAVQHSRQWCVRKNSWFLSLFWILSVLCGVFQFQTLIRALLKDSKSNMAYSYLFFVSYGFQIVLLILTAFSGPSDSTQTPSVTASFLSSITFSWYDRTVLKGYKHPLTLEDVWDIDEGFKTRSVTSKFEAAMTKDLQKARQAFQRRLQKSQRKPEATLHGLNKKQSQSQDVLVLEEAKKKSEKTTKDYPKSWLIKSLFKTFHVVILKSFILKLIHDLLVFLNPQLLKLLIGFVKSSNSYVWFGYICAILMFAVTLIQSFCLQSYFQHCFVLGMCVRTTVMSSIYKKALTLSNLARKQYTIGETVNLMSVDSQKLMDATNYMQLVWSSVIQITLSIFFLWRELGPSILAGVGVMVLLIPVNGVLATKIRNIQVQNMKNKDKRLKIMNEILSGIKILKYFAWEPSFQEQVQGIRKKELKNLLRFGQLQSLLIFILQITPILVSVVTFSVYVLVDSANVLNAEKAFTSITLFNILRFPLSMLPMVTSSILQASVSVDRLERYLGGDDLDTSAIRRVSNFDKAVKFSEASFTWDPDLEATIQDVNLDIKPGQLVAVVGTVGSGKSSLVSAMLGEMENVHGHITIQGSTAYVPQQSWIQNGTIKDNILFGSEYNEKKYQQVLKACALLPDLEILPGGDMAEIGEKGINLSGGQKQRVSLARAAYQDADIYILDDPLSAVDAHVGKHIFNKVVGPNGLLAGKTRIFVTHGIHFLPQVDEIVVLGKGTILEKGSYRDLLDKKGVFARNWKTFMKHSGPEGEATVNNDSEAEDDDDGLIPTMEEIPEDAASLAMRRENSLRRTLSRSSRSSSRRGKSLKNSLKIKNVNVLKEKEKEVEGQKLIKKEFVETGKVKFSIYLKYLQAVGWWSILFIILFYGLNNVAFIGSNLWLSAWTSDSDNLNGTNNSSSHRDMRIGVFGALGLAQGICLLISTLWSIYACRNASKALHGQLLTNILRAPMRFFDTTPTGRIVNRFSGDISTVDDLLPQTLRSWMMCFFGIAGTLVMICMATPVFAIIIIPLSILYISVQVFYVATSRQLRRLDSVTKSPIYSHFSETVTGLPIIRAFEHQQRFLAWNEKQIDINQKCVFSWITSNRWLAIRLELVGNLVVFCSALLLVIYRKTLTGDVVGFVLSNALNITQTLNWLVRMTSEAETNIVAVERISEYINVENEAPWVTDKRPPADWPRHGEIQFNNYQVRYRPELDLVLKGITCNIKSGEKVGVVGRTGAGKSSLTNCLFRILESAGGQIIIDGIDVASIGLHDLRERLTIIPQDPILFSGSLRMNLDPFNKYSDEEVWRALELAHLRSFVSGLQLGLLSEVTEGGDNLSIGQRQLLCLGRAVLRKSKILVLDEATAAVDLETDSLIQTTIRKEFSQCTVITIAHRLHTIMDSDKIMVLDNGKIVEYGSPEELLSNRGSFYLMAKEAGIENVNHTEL

Consider `O=C1CC(c2ccc(O[C@@H]3O[C@H](C(=O)O)[C@@H](O)[C@H](O)[C@H]3O)cc2)Oc2cc(O)ccc21` (some centres not stated) [LIQUIRTIGENIN GLUCURONIDE], for which the Activity result in data set [1] and in data set [2] was “substrate [+]” in each case.
